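The compound was tested at five concentrations on cells cultured in 96-well plates, with a 48-hour exposure period. The concentration for 50% growth inhibition is given as GI50. At the TGI there is no net growth.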 Some results are limits rather than exact numbers.

Here are results for 27 compounds from PubChem BioAssay (NCI).

What all share (experiment): DTP human tumour cell line panel, 48 h
Test [1] deals with DMS 273 small cell lung.
For test [2], the system named is M19-MEL melanoma.
In test [3] the test system is RXF-631 renal.
The subject of test [4] is LXFL 529 NSCLC.
Test [5] deals with PC-3 prostate.
Test [6] concerns MDA-MB-435.
For test [7], the system named is NCI/ADR-RES ovarian.

Usually TGI stands for the concentration giving total growth inhibition. On to `c1cnc2c(c1)-n1cccc1C1(CCSCC1)NN2`, for which the TGI in test [1] and in test [2] was more than 100 µM in each case.
In the case of `CCN(CC)CCn1c2c3ccccc3ccc2c2oc(=O)c3ccccc3c21`, the TGI in test [2], in test [3] and in test [4] was more than 100 µM in each case.
In the case of `COc1cc(-c2cc(=O)c3cc4c(cc3[nH]2)OCO4)cc(OC)c1OC`, the TGI in test [1], in test [2] and in test [4] was more than 100 µM each time.
As to `CCN(CC)c1ccc(N=Nc2ccc(-c3nc4cccnc4o3)cc2)cc1`, the TGI in test [1], in test [2] and in test [4] was more than 100 µM in each case.
For `O=[N+]([O-])c1c(/C=N/Nc2ccccc2)oc(-c2ccc3c(c2)OCO3)c1-c1ccc2c(c1)OCO2`, the TGI in test [2], in test [3] and in test [4] was more than 100 µM throughout.
With `CCN(CC)CCCCC1CCN(CC(=O)N2CC(C)C(=O)Nc3ccccc32)CC1` (centres undefined), the TGI in test [1], in test [2] and in test [4] was more than 100 µM throughout.
For the compound `Cc1cc2c(CC(=O)O)[nH]nc2c(C(=O)O)c1C`, the TGI in test [1], in test [2], in test [3] and in test [4] was more than 100 µM in each case.
For `C=CCNC(=S)N1CC(C)C(=O)Nc2ccccc21` (centres undefined), the TGI in test [1] and in test [4] was more than 100 µM in each case.
For `CC(=O)NC(CCCCNC(=O)OCc1ccccc1)C(=O)NCc1ccccc1` (centres undefined), the TGI in test [1], in test [2] and in test [4] was more than 100 µM throughout.
Take `CN1CCN(CCSC2Cc3cc(Cl)ccc3Sc3ccccc32)CC1` (centres undefined): the TGI was 4.28 µM in test [1], 4.16 µM in test [2] and 7.34 µM in test [4].
A word on the GI50: it is the concentration giving 50% growth inhibition. With `COc1cc(-c2cnn(C)c2)ccc1Nc1ncc2ccnc(N[C@@H](C)C(C)(C)C)c2n1`, the GI50 is more than 96.1 µM in test [5], more than 75.1 µM in test [6] and more than 43.4 µM in test [7]. The TGI in test [5], in test [6] and in test [7] was more than 100 µM throughout.
As to `Cc1nc2ccc(C(F)(F)F)cc2nc1Nc1ccc(Cl)c(Cl)c1`, the TGI stood at 16.1 µM in test [1], 24.4 µM in test [2], 20.1 µM in test [3] and 20.6 µM in test [4].
As to `O=C(C(O)c1cn(Cc2ccccc2)c2ccccc12)N1CCCCC1` (centres undefined), the TGI in test [1], in test [2] and in test [4] was more than 100 µM in each case.
As for `CCOC(=O)CCC(=O)C1c2cccc(O)c2C(=O)c2c(O)cccc21`, the TGI in test [1] was determined as 2.73 µM; in test [2] it was 2.29 µM.
Consider `C=CCCCCCCCCCCCC1CCC(CC)N1` (centres undefined), for which the TGI in test [1] was found to be 5.92 µM; in test [2], 16.2 µM; in test [3], 23.5 µM; in test [4] it was 26 µM.
On to `CCOc1ccc(/C=C/C(=O)c2ccccc2)cc1`, for which the GI50 in test [5] was 23.9 µM; in test [6], 12 µM; in test [7], 18.3 µM. For the same compound, the TGI in test [5] was 61.4 µM; in test [6] it was 30.1 µM; in test [7] it was 56.3 µM.
In the case of `Nc1c(C(=O)c2ccccc2)sc2nc(-c3cccs3)ccc12`, the results for the GI50 in test [5], in test [6] and in test [7] were 0.176 µM, 0.027 µM and 0.0537 µM, respectively. The TGI in test [5] was determined as 10.1 µM; in test [6] it was 1.03 µM; in test [7], 1.81 µM.
Take `Cc1ccc(C(=O)c2oc3ccc4c(C)cc(=O)oc4c3c2C)cc1`: the GI50 in test [5] is 5.64 µM; in test [6], 5.95 µM; in test [7], 10.2 µM. Further, the TGI in test [5], in test [6] and in test [7] was more than 100 µM each time.
As to `N#CCCc1nc2ccc(Br)cc2c(=O)n1CCO`, the TGI in test [2], in test [3] and in test [4] was more than 100 µM throughout.
`CCCC(=O)c1c(NOC2OC(COC(C)=O)C(OC(C)=O)C(OC(C)=O)C2OC(C)=O)nc(OC)n(C)c1=O` (centres undefined): the TGI in test [1], in test [2] and in test [4] was more than 100 µM throughout.
For the compound `CC[N+](CCCCCCCCCC[N+](CC)(c1ccccn1)c1ccccn1)(c1ccccn1)c1ccccn1`, the GI50 in test [5] was 0.459 µM; in test [6], 0.609 µM; in test [7], 5.28 µM. For the same compound, the TGI in test [5] was 11.2 µM; in test [6] it was 4.19 µM; in test [7], 53.8 µM.
As for `COC(=O)c1c(-c2ccccc2)cc2c3cc(-c4ccccc4)c(C(=O)OC)n3c3ccccc3n12`, the TGI in test [1], in test [2], in test [3] and in test [4] was more than 100 µM each time.
`CC(C)c1ccc(Cc2cnc(NC(=O)c3cc(Br)cs3)s2)cc1`: the GI50 in test [5] is 2.23 µM; in test [6], 0.355 µM; in test [7] it was 1.73 µM. Also, the TGI is more than 100 µM in test [5], 2.16 µM in test [6] and 5.31 µM in test [7].
`C=CC(=O)N1CCCC(n2nc(-c3ccc(Oc4ccccc4)cc3)c3c(N)ncnc32)C1` (centres undefined): the GI50 in test [5] was 10 µM; in test [6], 7.85 µM; in test [7] it was 4.27 µM. The values for the TGI in test [5], in test [6] and in test [7] were 24.2 µM, 22.5 µM and 34.8 µM, respectively.
For the compound `O=C(Nc1ccc(Cl)cc1)Nc1ccc(Cl)c(Cl)c1`, the GI50 was 2.97 µM in test [5], 3.4 µM in test [6] and 3.6 µM in test [7]. The TGI in test [5], in test [6] and in test [7] was more than 100 µM in each case.
In the case of `Oc1ccc(Br)cc1Sc1cc(Br)ccc1O`, the values for the GI50 in test [5], in test [6] and in test [7] were 10.6 µM, 5.23 µM and 5.06 µM, respectively. Moreover, the TGI in test [5] stood at 29.4 µM; in test [6], 19.8 µM; in test [7] it was 24.3 µM.
In the case of `CCOc1ccccc1NC(=O)/C=C1\NC(=O)CS1`, the total growth inhibition concentration (TGI) in test [1], in test [2] and in test [4] was more than 100 µM each time.
